Patent publication US20240246967A1, “AXL COMPOUNDS” (ARCUS BIOSCIENCES, INC., priority 2021, published 2024)

Tests used:
[1] = biological target: T1, human MER (Homo sapiens, UniProt Q12866); experiment: HTRF KinEASE-TK biochemical potency assay, MER; conditions: 1 nM MER, 700 μM ATP, 800 nM TK Substrate-biotin
T1 construct: purchased Invitrogen
T1 sequence (Q12866 21-999): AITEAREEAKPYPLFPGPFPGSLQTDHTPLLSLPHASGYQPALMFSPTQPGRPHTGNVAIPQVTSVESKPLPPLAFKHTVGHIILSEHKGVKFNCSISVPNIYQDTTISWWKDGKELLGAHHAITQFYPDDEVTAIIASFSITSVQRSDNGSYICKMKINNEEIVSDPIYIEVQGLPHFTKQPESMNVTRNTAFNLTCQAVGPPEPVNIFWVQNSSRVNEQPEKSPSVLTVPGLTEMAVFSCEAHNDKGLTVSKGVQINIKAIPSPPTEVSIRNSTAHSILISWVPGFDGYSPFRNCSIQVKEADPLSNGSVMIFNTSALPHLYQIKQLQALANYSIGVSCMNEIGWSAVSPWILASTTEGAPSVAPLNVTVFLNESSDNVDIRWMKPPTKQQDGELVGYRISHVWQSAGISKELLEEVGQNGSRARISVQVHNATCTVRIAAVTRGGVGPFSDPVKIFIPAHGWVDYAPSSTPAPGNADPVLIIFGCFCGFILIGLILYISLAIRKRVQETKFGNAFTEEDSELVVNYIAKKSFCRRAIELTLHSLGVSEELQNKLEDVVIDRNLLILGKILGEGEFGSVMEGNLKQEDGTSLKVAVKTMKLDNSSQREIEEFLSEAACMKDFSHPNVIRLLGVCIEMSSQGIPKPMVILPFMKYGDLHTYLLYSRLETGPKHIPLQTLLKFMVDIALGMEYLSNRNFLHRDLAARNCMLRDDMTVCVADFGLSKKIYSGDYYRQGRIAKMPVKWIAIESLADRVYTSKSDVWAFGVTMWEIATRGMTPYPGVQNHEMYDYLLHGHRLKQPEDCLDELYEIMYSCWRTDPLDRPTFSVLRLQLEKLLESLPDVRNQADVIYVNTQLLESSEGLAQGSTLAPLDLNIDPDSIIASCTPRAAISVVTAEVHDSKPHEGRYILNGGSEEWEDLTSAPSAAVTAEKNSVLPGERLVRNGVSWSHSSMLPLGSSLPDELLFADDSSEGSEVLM
Description: (§1) Purified recombinant human AXL, TYRO3 and MER proteins were purchased from Invitrogen™. 10 nM AXL, 2 nM TYRO3 or MER were incubated with varying concentrations of compounds in 50 mM HEPES, pH 7.4, 10 mM MgCl2, 0.01% BSA, 1 mM DTT and 2% DMSO in a total volume of 20 μl in a 384-well microplate (Corning™ #3640) at RT for 1 h. The AXL, TYRO3 and MER enzymatic reaction was initiated by transferring 10 μl of enzyme and compound mixture into 10 μl of 1.6 μM TK Substrate-biotin (HTRF® KinEASE-TK kit, Cisbio) and 1400 μM ATP pre-incubated in 50 mM HEPES, pH 7.4, 10 mM MgCl2, 0.01% BSA, 1 mM DTT in a 384-well microplate (Corning™ #3640) at RT, giving the final reaction conditions: 5 nM AXL, 1 nM TYRO3 or MER, 800 nM TK Substrate-biotin and 700 μM ATP in 50 mM HEPES, pH 7.4, 10 mM MgCl2, 0.01% BSA, 1 mM DTT and 1% DMSO with varying concentrations of compounds. Following 2 h incubation at RT, the AXL, TYRO3 and MER enzymatic reaction was stopped by transfer of 10 μl of reaction into 10 μl of detection mix (400 nM Streptavidin-XL665, 200-fold dilution TK Antibody-Cryptate and detection buffer, HTRF® KinEASE-TK kit, Cisbio) in a white 384-well microplate (Perkin Elmer, OptiPlate 384). After 1 h incubation at RT, the plate was put into a plate reader (Evision) to read at 665/620 nm (acceptor/donor) for HTRF. The value of the DMSO blank (MIN inhibition=100% activity) was used as a negative control. The positive control was established by adding 5 μl of enzyme and DMSO mixture into 10 μl of detection mix followed by addition of 5 μl of TK Substrate-biotin and ATP mixture (MAX inhibition=0% activity). To calculate the percent activity, Equation 1 was used. Ratio 665/620 is the value at a given compound concentration: […]

[2] = biological target: T2, human TYRO3 (Homo sapiens, UniProt Q06418); experiment: HTRF KinEASE-TK biochemical potency assay, TYRO3; conditions: 1 nM TYRO3, 700 μM ATP, 800 nM TK Substrate-biotin
T2 construct: purchased Invitrogen
T2 sequence (Q06418 41-890): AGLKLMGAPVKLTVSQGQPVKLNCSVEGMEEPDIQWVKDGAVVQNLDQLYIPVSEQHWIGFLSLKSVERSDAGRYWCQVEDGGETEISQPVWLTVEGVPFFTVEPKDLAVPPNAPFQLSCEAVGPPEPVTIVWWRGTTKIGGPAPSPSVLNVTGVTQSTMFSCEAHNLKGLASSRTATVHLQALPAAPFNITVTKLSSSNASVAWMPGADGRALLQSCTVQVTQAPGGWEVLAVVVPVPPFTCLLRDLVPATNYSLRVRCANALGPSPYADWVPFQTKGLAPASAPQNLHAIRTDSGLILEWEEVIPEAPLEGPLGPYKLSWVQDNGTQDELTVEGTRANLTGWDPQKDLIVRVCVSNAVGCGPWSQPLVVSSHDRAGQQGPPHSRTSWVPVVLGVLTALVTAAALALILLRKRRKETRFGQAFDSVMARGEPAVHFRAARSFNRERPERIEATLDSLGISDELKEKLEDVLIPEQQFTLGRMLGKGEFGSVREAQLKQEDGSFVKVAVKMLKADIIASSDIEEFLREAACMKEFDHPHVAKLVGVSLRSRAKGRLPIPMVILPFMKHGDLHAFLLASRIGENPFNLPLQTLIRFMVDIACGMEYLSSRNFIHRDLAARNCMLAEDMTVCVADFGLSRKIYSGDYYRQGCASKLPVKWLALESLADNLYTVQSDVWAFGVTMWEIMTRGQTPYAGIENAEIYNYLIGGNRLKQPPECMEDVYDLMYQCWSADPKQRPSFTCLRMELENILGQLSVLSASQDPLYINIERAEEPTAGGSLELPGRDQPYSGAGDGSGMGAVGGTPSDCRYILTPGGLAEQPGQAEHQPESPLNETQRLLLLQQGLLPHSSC
Description: as §1

| SMILES | IC50 [1] [nM] | IC50 [2] [nM] |
| --- | --- | --- |
| C[C@@H]1CCCN1[C@H]1CCc2cc(-c3cnc4[nH]nc(-c5ccc(S(=O)(=O)C6CC6)cc5)c4c3)cnc2CC1 [Example 102, (2R)-1-[(7S)-3-{3-[4-(Cyclopropanesulfonyl)phenyl]-1H-pyrazolo[3,4-b]pyridin-5-yl}-5H,6H,7H,8H,9H-cyclohepta[b]pyridin-7-yl]-2-methylpyrrolidine] | > 1000 | > 1000 |
| COc1cc(-c2n[nH]c3ncc(-c4ccc5c(c4)CCC(C)(N4CCC[C@H]4C)CC5)cc23)ccc1OC[C@H]1COCCO1 (stereo partly drawn) [Example 114, (2R)-1-{2-[3-(4-{[(2R)-1,4-Dioxan-2-yl]methoxy}-3-methoxyphenyl)-1H-pyrazolo[3,4-b]pyridin-5-yl]-7-methyl-6,7,8,9-tetrahydro-5H-benzo[7]annulen-7-yl}-2-methylpyrrolidine] | > 1000 | 100 to 1000 |
| CS(=O)(=O)N1CCC(c2n[nH]c3ncc(-c4ccc5c(c4)CCC(N4CCCC4)CC5)cc23)CC1 (stereo not drawn) [Example 23, 1-Methanesulfonyl-4-{5-[7-(pyrrolidin-1-yl)-6,7,8,9-tetrahydro-5H-benzo[7]annulen-2-yl]-1H-pyrazolo[3,4-b]pyridin-3-yl}piperidine] | 100 to 1000 | 100 to 1000 |
| C[C@@H]1CCCN1C1(C)CCc2ccc(-c3cnc4[nH]nc(-c5ccc(S(=O)(=O)N6CCC6)cc5)c4c3)cc2CC1 (stereo partly drawn) [Example 104, (2R)-1-(2-{3-[4-(Azetidine-1-sulfonyl)phenyl]-1H-pyrazolo[3,4-b]pyridin-5-yl}-7-methyl-6,7,8,9-tetrahydro-5H-benzo[7]annulen-7-yl)-2-methylpyrrolidine] | 100 to 1000 | < 100 |
| C[C@@H]1CCCN1C1(C)CCc2ccc(-c3cnc4[nH]nc(-c5ccc(N6CCOCC6)cc5)c4c3)cc2CC1 (stereo partly drawn) [Example 107, 4-[4-(5-{7-Methyl-7-[(2R)-2-methylpyrrolidin-1-yl]-6,7,8,9-tetrahydro-5H-benzo[7]annulen-2-yl}-1H-pyrazolo[3,4-b]pyridin-3-yl)phenyl]morpholine] | > 1000 | 100 to 1000 |
| Cc1cc(-c2n[nH]c3ncc(-c4ccc5c(c4)CC[C@@H](N4CCCC4)CC5)cc23)cc(Cl)c1C(N)=O [Example 50, 2-Chloro-6-methyl-4-{5-[(7S)-7-(pyrrolidin-1-yl)-6,7,8,9-tetrahydro-5H-benzo[7]annulen-2-yl]-1H-pyrazolo[3,4-b]pyridin-3-yl}benzamide] | < 100 | < 100 |
| COCCOc1ccc(-c2n[nH]c3ncc(-c4ccc5c(c4)CC[C@@H](N4C6COCC4C6)CC5)cc23)cc1 [Example 123, 6-[(7S)-2-{3-[4-(2-methoxyethoxy)phenyl]-2H-pyrazolo[3,4-b]pyridin-5-yl}-6,7,8,9-tetrahydro-5H-benzo[7]annulen-7-yl]-3-oxa-6-azabicyclo[3.1.1]heptane] | > 1000 | 100 to 1000 |
| CC(C)(O)c1ccc(-c2n[nH]c3ncc(-c4ccc5c(c4)CCN(C4CCCC4)CC5)cc23)c(F)c1 [Example 17, 2-{4-[5-(3-Cyclopentyl-2,3,4,5-tetrahydro-1H-3-benzazepin-7-yl)-1H-pyrazolo[3,4-b]pyridin-3-yl]-3-fluorophenyl}propan-2-ol] | > 1000 | 100 to 1000 |

Second part, the compound after the results:

| IC50 [1] [nM] | IC50 [2] [nM] | SMILES |
| --- | --- | --- |
| > 1000 | > 1000 | C[C@@H]1CCCN1C1(C)CCc2ccc(-c3cnc4[nH]nc(-c5ccc(C(=O)N[C@H]6CCOC6)cc5)c4c3)cc2CC1 (stereo partly drawn) [Example 117, 4-(5-{7-Methyl-7-[(2R)-2-methylpyrrolidin-1-yl]-6,7,8,9-tetrahydro-5H-benzo[7]annulen-2-yl}-1H-pyrazolo[3,4-b]pyridin-3-yl)-N-[(3S)-oxolan-3-yl]benzamide] |
| 100 to 1000 | 100 to 1000 | CC(C)(O)c1ccc(-c2n[nH]c3ncc(-c4ccc5c(c4)CCC(N4CCCC4)CC5)cc23)cc1Cl (stereo not drawn) [Example 11, 2-(2-Chloro-4-{5-[7-(pyrrolidin-1-yl)-6,7,8,9-tetrahydro-5H-benzo[7]annulen-2-yl]-1H-pyrazolo[3,4-b]pyridin-3-yl}phenyl)propan-2-ol] |
| 100 to 1000 | < 100 | CC(C)(O)c1ccc(-c2n[nH]c3ncc(-c4cc5c(cn4)CCC(N4CCCC4)CC5)cc23)cc1Cl (stereo not drawn) [Example 59, 2-(2-Chloro-4-{5-[7-(pyrrolidin-1-yl)-5H,6H,7H,8H,9H-cyclohepta[c]pyridin-3-yl]-1H-pyrazolo[3,4-b]pyridin-3-yl}phenyl)propan-2-ol] |
| > 1000 | > 1000 | O=C1CCCN1c1ccc(-c2n[nH]c3ncc(-c4ccc5c(c4)CC[C@@H](N4C6COCC4C6)CC5)cc23)cc1 [Example 122, 1-(4-{5-[(7S)-7-{3-oxa-6-azabicyclo[3.1.1]heptan-6-yl}-6,7,8,9-tetrahydro-5H-benzo[7]annulen-2-yl]-2H-pyrazolo[3,4-b]pyridin-3-yl}phenyl)pyrrolidin-2-one] |
| 100 to 1000 | < 100 | C[C@H]1CCCN1C1CCc2ccc(-c3cnc4[nH]nc(-c5ccc(S(C)(=O)=O)cc5)c4c3)cc2CC1 (stereo partly drawn) [Example 36, 5-(7-((S)-2-Methylpyrrolidin-1-yl)-6,7,8,9-tetrahydro-5H-benzo[7]annulen-2-yl)-3-(4-(methylsulfonyl)phenyl)-1H-pyrazolo[3,4-b]pyridine] |
| 100 to 1000 | < 100 | Cc1cc(-c2n[nH]c3ncc(-c4ccc5c(c4)CCC(N4CCCC4)CC5)cc23)ccc1C(=O)N1CCNCC1 (stereo not drawn) [Example 47, 1-(2-Methyl-4-{5-[7-(pyrrolidin-1-yl)-6,7,8,9-tetrahydro-5H-benzo[7]annulen-2-yl]-1H-pyrazolo[3,4-b]pyridin-3-yl}benzoyl)piperazine] |
| 100 to 1000 | 100 to 1000 | CS(=O)(=O)c1ccc(-c2n[nH]c3ncc(-c4ccc5c(c4)CCN(C4CCCC4)CC5)cc23)cc1F [Example 32, 3-Cyclopentyl-7-(3-(3-fluoro-4-(methylsulfonyl)phenyl)-1H-pyrazolo[3,4-b]pyridin-5-yl)-2,3,4,5-tetrahydro-1H-benzo[d]azepine] |
